Data as given in article PMC9569450, “Dual Effect of Tryptamine on Prostate Cancer Cell Growth Regulation: A Pilot Study” (International Journal of Molecular Sciences, 2022).

Key:
[1] = UPLC-HRMS detection of tryptamine in serum or tissue samples of xenograft mice; type: in vivo, BALB/c nude mice
Description: However, intraperitoneal injection of tryptamine promoted the growth of PC-3 xenograft tumors in nude mice. […] Additionally, it has been reported that the intraperitoneal injections of 10 mg/kg 5-HT increased tumor weight by almost 60% using an orthotopic mouse model of ovarian cancer. As is known, both 5-HT and tryptamine in the blood can be taken up and carried by platelets and released during degranulation, and also various tryptamine-related compounds are substrates of the platelet 5-HT transporter. Thus, the tumor growth promoting effect of intraperitoneal treatment of tryptamine in our study might be similar to the effect of 5-HT, which has long been thought to be related to tumor progression.

PANC-1 cells = assay: MTT cell proliferation assay, PANC-1; type: cell-based; conditions: Homo sapiens, PANC-1, 48 h treatment in FBS-free medium, read-out: IC50 Value (Mean ± SD mM) PANC-1
Description: (§1) PC-3, LNCaP, RWPE-1, HepG2, A549, and PANC-1 cells were purchased from the National Collection of Authenticated Cell Cultures (Shanghai, China). […] All the above cell cultures were supplied with 10% fetal bovine serum and 1% penicillin-streptomycin. RWPE-1 cells were cultured in keratinocyte serum-free medium (K-SFM, Gibco, New York, NY, USA) supplemented with 50 mg/L bovine pituitary extract and 5 μg/L epidermal growth factor (EGF). All cell lines were grown in a humidified atmosphere of 5% CO2 at 37 °C.
(§2) Cells were seeded in 100 μL complete medium in a 96-well plate, at a density of 10,000 cells/well for LNCaP and 5000 cells/well for other cells. Cells were pre-incubated for 24 h to allow for adherence before removal of complete medium and treatment with various concentrations of compounds in fetal bovine serum (FBS)-free medium for 48 h. After treatment, 20 μL/well MTT (5 mg/mL) was added and incubated for 3–4 h at 37 °C, and then 100 μL/well DMSO was added for MTT assay. The plate was shaken on an orbital shaker for 10 min. Absorbance was measured using a microplate reader at 492 nm for the MTT assay (performed in triplicates). Cell viability was normalized to control. Half inhibitory concentration (IC50) was calculated by SPSS Statistics 17.0. […] The experiments were independently repeated two to three times.

[2] = test system: PC-3, LNCaP, RWPE-1, A549, PANC-1, and HepG2 cells; assay: MTT cell proliferation assay, all cell lines; type: cell-based; conditions: all cell lines tested; read-out: IC50 values for all six cell lines tested
Description: PC-3, LNCaP, RWPE-1, HepG2, A549, and PANC-1 cells were purchased from the National Collection of Authenticated Cell Cultures (Shanghai, China). PC-3 and A549 cells were cultured in F-12K Nutrient Mixture (Gibco, New York, NY, USA), LNCaP in RPMI 1640 (Gibco, New York, NY, USA), PANC-1 in Dulbecco’s Modified Eagle Medium (DMEM, Gibco, New York, NY, USA), and HepG2 in minimal essential medium (MEM, Gibco, New York, NY, USA). All the above cell cultures were supplied with 10% fetal bovine serum and 1% penicillin-streptomycin. RWPE-1 cells were cultured in keratinocyte serum-free medium (K-SFM, Gibco, New York, NY, USA) supplemented with 50 mg/L bovine pituitary extract and 5 μg/L epidermal growth factor (EGF). All cell lines were grown in a humidified atmosphere of 5% CO2 at 37 °C.
Cells were seeded in 100 μL complete medium in a 96-well plate, at a density of 10,000 cells/well for LNCaP and 5000 cells/well for other cells. Cells were pre-incubated for 24 h to allow for adherence before removal of complete medium and treatment with various concentrations of compounds in fetal bovine serum (FBS)-free medium for 48 h. After treatment, 20 μL/well MTT (5 mg/mL) was added and incubated for 3–4 h at 37 °C, and then 100 μL/well DMSO was added for MTT assay. The plate was shaken on an orbital shaker for 10 min. Absorbance was measured using a microplate reader at 492 nm for the MTT assay (performed in triplicates). Cell viability was normalized to control. Half inhibitory concentration (IC50) was calculated by SPSS Statistics 17.0. The combination index (CI) isobologram equation was used for the quantitative determination of the interaction between two compounds [62]:(1) Combination index CI =CA,x/ICx,A+CB,x/ICx,B where CA,x and CB,x are compound concentrations that […], and ICx,A and ICx,B are compound concentrations that provide the same effect when being used in combination. The experiments were independently repeated two to three times.

[3] = test system: human colon cancer cell line HT29; conditions: HT29 as in vitro model of intestinal epithelium; cited from earlier work
PC-3 cells = assay: Cell viability of PC-3 cells after 24 h (Figure S1); type: cell-based, human
Description: Figure S1. Cell viability of PC-3 cell treated with various concentrations of tryptamine […]
Figure S2. Liver function test results and effects of tryptamine and 3-HAA treatments on the tumor growth of PC-3 xenograft mouse model. (A and B) Appearance and aspartate aminotransferase (AST, U/L) value of the liver of PC-3 xenograft mice received intraperitoneal administration of tryptamine (80 mg/kg, n = 6) and intratumoral administration of tryptamine (1 mg/100 mm3, n = 5), respectively. Size of the tumors of PC-3 xenograft mice received intratumoral administration of (C and E) tryptamine (1 mg/100 mm3) and 3-HAA (200 mg/kg) and intraperitoneal administration of (D and F) tryptamine (80 mg/kg) and 3-HAA (200 mg/kg), respectively.
Figure S3. Heatmap overview of altered PC-3 cell metabolic profiles in LC-MS (A) positive and (B) negative ion modes before and after tryptamine treatment.
Figure S4. MS/MS analyses of the discriminant metabolites in panels.
Figure S1. Cell viability of PC-3 cell treated with various concentrations of tryptamine for 24h. […]

HepG2 cells = assay: Transwell migration assay, HepG2; type: cell-based; conditions: 24 h
Description: Cell migration was evaluated using 8-μm transwell filters (Costar Corning, Schiphol-Rijk, The Netherlands). Cells at a density of 5 × 10^4 were seeded to the upper chamber, and the chamber was filled with FBS-free medium. Cells were incubated overnight to allow for adherence; then, the lower chamber was replaced with 10% FBS medium as a chemo-attractant. Following a 24 h incubation, non-migrating cells on the upper surface of the insert membrane were gently removed by cotton swabs and migrated cells on the lower surface of the insert membrane were fixed by 4% paraformaldehyde and stained with 0.1% crystal violet for 20 min. Migrated cells on each membrane were photographed and counted at 100× magnification field at six random fields.

LNCaP cells = assay: MTT cell proliferation assay, LNCaP; type: cell-based; conditions: Homo sapiens, LNCaP, 48 h treatment in FBS-free medium, read-out: IC50 Value (Mean ± SD mM) LNCaP
Description: as §1, §2

With `NCCc1c[nH]c2ccccc12` [Tryptamine] the “tryptamine in serum or tissue samples” value ([1]; intraperitoneal treatment group) was “not detected”, the “tryptamine in tissue samples” value ([1]; intratumoral treatment group) was “apparent peak” and the IC50 (PANC-1 cells) was 0.38 ± 0.01 mM. For the same compound, the IC50 [2] was no more than 900 µM, the IC50 [3] was 670 ± 90 µM and the viability at 300 µM (PC-3 cells; Homo sapiens, PC-3, 0.3 mM, read-out: percentage of viable cells) was 75%. For the same compound, the “cell viability compared to the control group” value (PC-3 cells; PC-3, 0.15 mM) was “no significant change in cell viability”, the “migrated cells compared with the control” value (HepG2 cells; HepG2, 0.075 mM) was “no significant difference” and the “percentage of migrated cells” value (HepG2 cells; HepG2, 0.15 mM) was 77%. The “percentage of migrated cells” value (HepG2 cells; HepG2, 0.3 mM) was 55% and the IC50 (LNCaP cells) was 0.037 ± 0.001 mM.
